Results reported in PubChem BioAssay (NCI).
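Growth conditions: 96-well plates. Treatment: test compound, 48 hours, 5 concentrations. Analysis: linear interpolation between bracketing concentrations; unreached endpoints set to highest concentration. TGI is the concentration that stops growth completely.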 *1 amine or outer side, *2 acyl side, *3 side chain or, on linkers, in order; H or OH if unused. Where a SMILES comes first, the peptide text is derived from it. [ ]: non-standard residue; d: D form. X32 = C[C@H](N[*:1])C(=O)C(C)(C)C(=O)[*:2]; Hmpa(2S,3S) = CC[C@H](C)[C@H](O)C(=O)O; NMeY = CN[C@@H](Cc1ccc(O)cc1)C(=O)O; NMeL = CN[C@@H](CC(C)C)C(=O)O; NMeV = CN[C@H](C(=O)O)C(C)C; βAla = NCCC(=O)O

Tests used:
Test in all cases: inhibition of tumour cell growth, NCI panel, 48 h
[1] = system: COLO 205 colon
[2] = system: HOP-62 NSCLC
[3] = system: HT29 colon
[4] = system: MCF7 breast
[5] = system: MDA-N
[6] = system: SF-539 CNS
[7] = system: SK-MEL-28 melanoma
[8] = system: SNB-19 CNS
[9] = system: SR leukemia
[10] = system: UACC-257 melanoma
[11] = system: UACC-62 melanoma

SMILES | TGI [1] [µM] | TGI [2] [µM] | TGI [3] [µM] | TGI [4] [µM] | TGI [5] [µM] | TGI [6] [µM] | TGI [7] [µM] | TGI [8] [µM] | TGI [9] [µM] | TGI [10] [µM] | TGI [11] [µM]
CCOC(=O)CCC(NC(=O)c1ccc(OCc2ccc3nc(-c4ccccc4)c(Cl)nc3c2)cc1)C(=O)OCC (configuration not stated) | > 100 | > 31.6 | > 31.6 | > 31.6 | > 100 | 28.7 | > 31.6 | 31.1 | > 31.6 | > 31.6 | > 31.6
N#Cc1ccc(-n2c3ccccc3c3ccc4c(c32)C(=O)C=CC4=O)cc1 | 10.5 | 30.8 | 5.88 | 8.04 | 13.1 | 18.5 | 13.1 | 26.6 | 6.92 | 13.9 | 15.6
O=C(NCCCCCCNC(=O)c1cc(-c2ccccc2)nc2ccccc12)c1cc(-c2ccccc2)nc2ccccc12 | > 100 | > 100 | > 100 | > 100 | > 100 | > 100 | > 100 | > 100 | > 100 | > 100 | > 100
CCCCCCCCCCCCCCCCCCN(C)CC(COP(=O)([O-])OCC[N+](C)(C)C)OC (configuration not stated) | 8.47 | 28.4 | 15 | > 62.3 | > 100 | 40.3 | 56.8 | 18.5 | 28.6 | 56.4 | 32.9
O=[N+]([O-])c1cc(-c2nc(-c3ccccc3)c(-c3ccccc3)[nH]2)c(O)c([N+](=O)[O-])c1 | 45.1 | 43.4 | 35.8 | 72.9 | > 100 | 41.5 | > 100 | > 100 | 58.7 | 50.9 | 33.8
COc1ccc(C(=O)/C=C/c2cc(O)c(O)c(F)c2F)c(OC)c1 | 53.1 | 92.7 | > 100 | 49.1 | 80.3 | 65.3 | > 100 | > 100 | 26.8 | 41.8 | 42.8
C[C@@H]1CC[C@@H]2[C@@H](C1)O[C@@H]([C@H](C)OCc1ccccc1)SC2(C)C | 34 | > 100 | > 100 | 31.5 | 65.5 | > 100 | 88.1 | 36.8 | 35.6 | 73.3 | > 100
O=[N+]([O-])c1ccc(N/N=C/c2ccc(OCCCCCCCCCCCO)cc2)c([N+](=O)[O-])c1 | 6.24 | 19.6 | > 100 | > 93.6 | 13 | 4.22 | 32.5 | 27.1 | 8.94 | 15.2 | 7.74
CC[C@H](C)[C@@H]1OC(=O)CCNC(=O)[C@@H](C)NC(=O)C(C)(C)C(=O)[C@H](C)NC(=O)[C@H](Cc2ccc(OC)cc2)N(C)C(=O)[C@H](C(C)C)N(C)C(=O)CNC(=O)[C@H](CC(C)C)N(C)C(=O)CNC1=O (cyclo(G[NMeL]G[NMeV][NMeY](Me)[X32][dA][βAla][Hmpa(2S,3S)])) | 0.0545 | 10.6 | 10.2 | > 50 | > 31.8 | > 33.6 | > 36.3 | 9.63 | > 25.9 | > 25.9 | > 50
N#Cc1c(N)nc(Sc2ccccc2N)c(C#N)c1-c1ccc(Cl)cc1 | > 100 | 17.2 | > 100 | 29.6 | 40.2 | 26.7 | > 100 | > 56.6 | > 40.5 | 62.9 | 13
O=C1CSC(c2cccc([N+](=O)[O-])c2)N1c1ccc(-n2c(-c3ccccc3)nc3ccccc3c2=O)cc1 (configuration not stated) | > 100 | > 100 | > 100 | > 100 | > 100 | > 100 | > 100 | > 100 | > 100 | > 100 | > 100
O=C1Oc2cc(O)cc(/C=C/c3ccc(O)cc3)c2[C@@]12c1c(O)cc(O)cc1OC2c1cccc(O)c1 (some centres not stated) | 69.7 | 65.5 | 65 | > 100 | 93.2 | > 100 | > 100 | 91.6 | > 100 | 67.5 | 68
